Assays:
[1] = molecular target: T1, FP receptors (Swiss 3T3 cells expressing FP receptors) (Mus musculus, UniProt P43117); experiment: FP receptor-mediated phosphoinositide turnover assay; type: cell-based; settings: Table 2; for EC50: [3H]-IPs in Swiss 3T3 cells, read-out: EC50; for % response: efficacy relative to standard
T1 construct: endogenous in cells; host or cells: Swiss 3T3 cells
Procedure: FP receptor-mediated phosphoinositide turnover assay: [^3H]Inositol phosphates ([^3H]-IPs) produced by agonist-mediated activation of phospholipase C in Swiss 3T3 cells expressing FP receptors were quantified as follows. Confluent 3T3 cells were exposed to 1.0-1.5 μCi [^3H]-myo-inositol (18.3 Ci/mmol) in 0.5 ml DMEM for 24-30 hours at 37° C. Then cells were rinsed once with DMEM/F-12 containing 10 mM LiCl, and the agonist stimulation experiment was performed in 0.5 ml of the same medium to facilitate accumulation of [^3H]-IPs. Cells were exposed to the agonist or solvent for 60 min at 37° C. (triplicate determinations), followed by aspiration of the medium and immediate addition of 1 ml of ice-cold 0.1 M formic acid. The plates were kept cold and then frozen. Samples frozen up to one week were thawed prior to chromatographic separation of radiolabeled components. The cell lysates (0.9 ml) were loaded on columns packed with approximately 1 ml AG 1-X8 anion exchange resin. The elution procedure consisted of a wash with 10 ml of H2O, then 8 ml of 50 mM ammonium formate, and finally 4 ml of 1.2 M ammonium formate with 0.1 M formic acid, which was collected in a scintillation vial. To this eluate was added 15 ml of scintillation fluid and the total [^3H]-IPs determined by scintillation counting on a beta-counter. Data were analyzed by the sigmoidal fit function of the Origin Scientific Graphics software (Microcal Software, Northampton, Mass.) to determine agonist potency (EC50 value) and efficacy, relative to the standard cloprostenol.

FP receptors = molecular target: T2, FP receptors (Bos taurus, UniProt P37289); experiment: FP receptor binding assay ([3H]PGF2α, bovine corpus luteum membranes); settings: Table 2; FP receptor binding
T2 construct: Washed total particulate bovine corpus luteum membranes; from tissue; host or cells: bovine corpus luteum membranes
Procedure: Non-specific binding was defined with 1-10 μM unlabeled PGF2α or fluprostenol. The assays were terminated by vacuum filtration (using Whatman GF/B glass fiber filter previously soaked in 0.3% polyethyleneimine) and the data analyzed by a non-linear, iterative, curve-fitting computer program.

eyelash [2] = settings: in some instances, U.S. Pat. No. 6,262,105; cited from earlier work
eyelash [3] = experiment: Eyelash change from baseline evaluated by photographs in clinical studies; type: in vivo, patients; settings: for Percent of Patients with Eyelash Change: Table 3; for Percent of Patients with Eyelash Change: Change Reported / Percent of Patients with Eyelash Change: Color Change / Percent of Patients with Eyelash Change: Density Change / Percent of Patients with Eyelash Change: Length Change / Percent of Patients with Eyelash Change: Thickness Change: Table 4; for change in eyelash color, length, density and/or thickness (in words): Travoprost 0.0015% and 0.004%, latanoprost 0.005% compared to travoprost
Source text: Eyelash photographs of each eye were taken at determination of patient eligibility […] (baseline) and Months 1.5, 3, 4.5 and 6 in four clinical studies. Additional photographs were taken at Months 9 and 12 in two clinical studies. Eyelash change was classified using the following categories: change in eyelash color, increase in eyelash length, increase in eyelash density and increase in eyelash thickness. Two independent readers evaluated the photographs subjectively for any change from baseline in eyelash characteristics.

T1 sequence (P43117 whole entry): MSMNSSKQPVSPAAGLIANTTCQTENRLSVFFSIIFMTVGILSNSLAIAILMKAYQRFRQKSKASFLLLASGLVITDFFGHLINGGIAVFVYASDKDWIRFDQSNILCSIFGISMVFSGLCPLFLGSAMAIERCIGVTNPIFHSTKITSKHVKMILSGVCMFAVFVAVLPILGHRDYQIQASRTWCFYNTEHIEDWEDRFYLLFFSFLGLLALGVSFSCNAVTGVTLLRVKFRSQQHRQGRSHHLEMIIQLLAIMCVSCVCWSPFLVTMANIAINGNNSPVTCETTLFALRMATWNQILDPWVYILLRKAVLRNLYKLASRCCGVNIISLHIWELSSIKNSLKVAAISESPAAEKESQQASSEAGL
T2 sequence (P37289 whole entry): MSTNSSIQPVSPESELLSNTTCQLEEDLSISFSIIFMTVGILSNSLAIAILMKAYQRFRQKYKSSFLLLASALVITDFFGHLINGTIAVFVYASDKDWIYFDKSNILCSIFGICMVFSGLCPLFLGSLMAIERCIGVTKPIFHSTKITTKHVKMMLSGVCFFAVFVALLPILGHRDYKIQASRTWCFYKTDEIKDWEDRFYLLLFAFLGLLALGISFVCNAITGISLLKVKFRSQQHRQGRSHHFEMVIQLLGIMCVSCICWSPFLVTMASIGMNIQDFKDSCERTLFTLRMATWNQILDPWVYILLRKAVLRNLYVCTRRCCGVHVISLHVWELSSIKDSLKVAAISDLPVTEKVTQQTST

Compound | EC50 [1] [µM] | % response [1] [%] | Ki (FP receptors) [µM] | also measured
O=C(O)CCC/C=C\C[C@@H]1[C@@H](/C=C/[C@@H](O)COc2cccc(Cl)c2)[C@H](O)C[C@@H]1O [Compound 81] | 0.0014 | 100 | 0.091 | 
O=C(O)CCC/C=C\C[C@@H]1[C@@H](/C=C/[C@@H](O)COc2cccc(C(F)(F)F)c2)[C@H](O)C[C@@H]1O [Compound 82] | 0.0038 | 96 | 0.035 | 
O=C(O)CCC/C=C\C[C@@H]1[C@@H](CC[C@@H](O)COc2cccc(Cl)c2)[C@H](O)C[C@@H]1O [Compound 83] | 0.004 | 100 | 0.05 | 
O=C(O)CCC/C=C\C[C@@H]1[C@@H](CC[C@H](O)COc2cccc(Cl)c2)[C@H](O)C[C@@H]1O [Compound 84] | 0.21 | 76 | 0.13 | 
O=C(O)CCCCCC[C@@H]1[C@@H](CC[C@@H](O)COc2cccc(Cl)c2)[C@H](O)C[C@@H]1O [Compound 85] | 0.023 | 100 | 0.22 | 
CC(C)OC(=O)CCC/C=C\C[C@@H]1[C@@H](CC[C@@H](O)CCc2ccccc2)[C@H](O)C[C@@H]1O [Latanoprost] |  |  |  | eyelash growth in glaucoma patients (in words) (eyelash [2]): increased eyelash growth; Percent of Patients with Eyelash Change (eyelash [3]; 0.005%): 25.8%; Percent of Patients with Eyelash Change: Change Reported (eyelash [3]; 0.005%): 25.8%; Percent of Patients with Eyelash Change: Color Change (eyelash [3]; 0.005%): 16.5%; Percent of Patients with Eyelash Change: Density Change (eyelash [3]; 0.005%): 22.2%; Percent of Patients with Eyelash Change: Length Change (eyelash [3]; 0.005%): 25.8%; Percent of Patients with Eyelash Change: Thickness Change (eyelash [3]; 0.005%): 17.5%; change in eyelash color, length, density and/or thickness (in words) (eyelash [3]): greatly reduced frequency
CC(C)OC(=O)CCC/C=C\C[C@@H]1[C@@H](/C=C/[C@@H](O)COc2cccc(C(F)(F)F)c2)[C@H](O)C[C@@H]1O [Travoprost] |  |  |  | Percent of Patients with Eyelash Change (eyelash [3]; 0.0015%): 48.1%; Percent of Patients with Eyelash Change (eyelash [3]; 0.004%): 61.3%; Percent of Patients with Eyelash Change: Change Reported (eyelash [3]; 0.0015%): 48.1%; Percent of Patients with Eyelash Change: Color Change (eyelash [3]; 0.0015%): 37.3%; Percent of Patients with Eyelash Change: Density Change (eyelash [3]; 0.0015%): 44.6%; Percent of Patients with Eyelash Change: Length Change (eyelash [3]; 0.0015%): 48.1%; Percent of Patients with Eyelash Change: Thickness Change (eyelash [3]; 0.0015%): 33.8%; Percent of Patients with Eyelash Change: Change Reported (eyelash [3]; 0.004%): 61.3%; Percent of Patients with Eyelash Change: Color Change (eyelash [3]; 0.004%): 47.9%; Percent of Patients with Eyelash Change: Density Change (eyelash [3]; 0.004%): 58.2%; Percent of Patients with Eyelash Change: Length Change (eyelash [3]; 0.004%): 61.1%; Percent of Patients with Eyelash Change: Thickness Change (eyelash [3]; 0.004%): 51.1%; change in eyelash color, length, density and/or thickness (in words) (eyelash [3]): concentration-related change

Now from value to compound, other results behind:

EC50 [1] [µM] | % response [1] [%] | Ki (FP receptors) [µM] | Compound | also measured
0.00492 | 100 | 0.093 | O=C(O)CCCCCC[C@@H]1[C@@H](/C=C/[C@@H](O)COc2cccc(Cl)c2)[C@H](O)C[C@@H]1O [Compound 86] | 
0.038 | 88 | 0.73 | O=C(O)CCCCCC[C@@H]1[C@@H](/C=C/[C@H](O)COc2cccc(Cl)c2)[C@H](O)C[C@@H]1O [Compound 87] | 
0.0116 | 99 | 0.15 | O=C(O)CCC/C=C\C[C@@H]1[C@@H](/C=C/[C@H](O)COc2cccc(C(F)(F)F)c2)[C@H](O)C[C@@H]1O [Compound 88] | 
0.041 | 96 | 0.26 | O=C(O)CCC/C=C/C[C@@H]1[C@@H](/C=C/[C@@H](O)COc2cccc(C(F)(F)F)c2)[C@H](O)C[C@@H]1O [Compound 89] | 

— patent publication US20030199590A1, “Prostaglandin analogues for promotion of hair growth” (priority 2002, published 2003)
